Assay results from paper PMC6260619, “Selective Cytotoxicity of Goniothalamin against Hepatoblastoma HepG2 Cells” (Molecules, 2011).
Values joined by “and” are separate entries in the source; they are usually repeats but may differ in a detail not shown here. Identical values can stand only once.

Assays:
Chang cells [1] = assay: Trypan blue dye exclusion viable cell count, Chang; format: cell-based
Description: (§1) As supported by MTT and LDH results, goniothalamin inhibited cell proliferation towards HepG2 in a time- and dose-dependent manner as shown in the BrdU incorporation ELISA method. The effects of goniothalamin on HepG2 and Chang cell growth were also analyzed by viable cell counts using trypan blue dye exclusion assay for 24, 48 and 72 hours after treatment with different doses of goniothalamin. […] The ratio between viable cell numbers in goniothalamin-treated cells and control cells was reported as the Viablity Index (VI, Figure 5A and Figure 5B).
(§2) A half mL aliquot of cell suspension (obtained from treated and non-treated HepG2 and Chang cells), was mixed with 0.5 mL of 0.4% trypan blue dye and left for 5 min at room temperature). The cells were counted using the hemacytometer and the percentage of dead cells was determined.

HepG2 cells [2] = assay: Trypan blue dye exclusion viable cell count, HepG2; format: cell-based, human
Description: as §1, §2

HepG2 cells [3] = assay: LDH leakage assay, HepG2; format: cell-based, human; conditions: for IC50: Homo sapiens, read-out: IC50 from LDH
Description: Measurement of LDH activity is another indicator of cell viability through evaluation of the cell membrane permeability. The enzyme activity is measured externally, as it leaks from dead cells which lose their membrane integrity. LDH leakage detection is based on the loss of NADH due to its oxidation to NAD^+, resulting in the conversion of pyruvate to lactate. Untreated cells should retain LDH in their cells and have minimal loss over the time of the assay. Triton X-100-treated cells that give the maximum loss of LDH were used as the positive control in this assay.
To determine the effect of goniothalamin on membrane permeability in HepG2 and Chang cell lines, a lactate dehydrogenase (LDH) release assay was used. The cells were seeded in 96-well culture plates at a density of 2 × 10^4 cells/well in 100 μL volume and allowed to grow for 18 hours before treatment. After treatment, the plates were incubated for 24, 48 and 72 hours, respectively. Then, the supernatant (40 μL) was transferred to a new 96 well to determine LDH release and 6% triton X-100 (40 μL) was added to the original plate for determination of total LDH. An aliquot of 0.1 M potassium phosphate buffer (100 μL, pH 7.5) containing 4.6 mM pyruvic acid was mixed to the supernatant using repeated pipetting. Then, 0.1 M potassium phosphate buffer (100 μL, pH 7.5) containing 0.4 mg/mL reduced β-NADH was added to the wells. The kinetic changes were read for 1 min using ELISA microplate reader in absorbance at wavelength 340 nm. This procedure was repeated with 40 μL of the total cell lysate to determine total LDH U/well. A change of 0.001 absorbance units/min is equivalent to 1 U/L of LDH activity. The percentage of LDH release was determined by dividing the LDH released into the media by the total LDH following cell lysis in the same well.

HepG2 cells [4] = assay: MTT cytotoxicity assay, HepG2; format: cell-based, human; conditions: for IC50: read-out: IC50 from MTT
Description: HepG2 and Chang cells were plated at 1 × 10^4 cells/well by adding 200 μL of a 5 × 10^4 cells/mL suspension to each well of a 96-well tissue culture plate. The plate was incubated for a sufficient time to assure attachment and 40% to 60% confluency. […] The last row was left as an untreated control. The plates were incubated at 37 °C, 5% CO2, for 24, 48 and 72 hours, respectively. After incubation with compounds, the media was aspirated off and replaced with fresh media. Then, MTT solution (20 μL) for a total volume of 200 μL was added in every well and incubated for 4 to 6 hours at 37 °C with 5% CO2. After that, MTT-containing medium was removed gently and replaced with DMSO (200 μL per well) to mix the formazan crystals until dissolved. The plates were read on microtiter plate reader at 570 nm. For each compound tested, the IC50 (concentration of drug needed to inhibit cell growth by 50%) is generated from the dose-response curves for each cell line.

Chang cells [5] = assay: BrdU cell proliferation ELISA, Chang; format: cell-based, human
Description: The inhibition of goniothalamin on cellular DNA synthesis in Chang cells was also measured by BrdU incorporation.
To confirm anti-proliferative effects in goniothalamin-treated cells, BrdU cell proliferation kit was used. HepG2 and Chang cells were seeded at 1.5 × 10^5 cells/mL in a final volume of 100 μL in a 96-well culture dish and incubated overnight to allow the cells to adhere to the dish. Each sample was assayed in triplicate. Besides, the control samples include a blank (no cells) and background (cells without BrdU) was also prepared. […] Then, BrdU label (20 μL, diluted by 1/2,000 in media) was added to each well and incubated for 24 h at 37 °C. The media was discarded and replaced by fix/denaturing solution (200 μL). The plate was incubated for 30 min at room temperature. The fix/denaturing solution was removed by inverting the plate. Then, BrdU antibody (100 μL, diluted by 1/100 in dilution buffer) was added to each well and left for 1 hour at room temperature. The cells were washed 3 times with wash buffer. After that, secondary antibody (100 μL, anti-mouse IgG HRP conjugated) was added to each well for 30 min. The washing step was done three times with wash buffer and once with distilled water. The distilled water was removed and substrate solution (100 μL) was added to each well. The plate was left for 15 min at room temperature in the dark condition. Finally, stop solution (100 μL) was added to the wells and absorbance measured at 450–540 nm.

## O=C1C=CC[C@H](/C=C/c2ccccc2)O1 [Goniothalamin, 5-hydroxy-7-phenylhepta-2,6-dienoic acid lactone]
Chang cells [1]; at IC50, 72 hours
  Viability Index: 62 ± 4.36%
Chang cells [1]; doses comparable to 2.3 µM
  cytotoxicity (cell count, trypan blue): no obvious cytotoxicity
HepG2 cells [2]; HepG2, 2.3 µM
  viability (cell count, trypan blue): significantly inhibited
HepG2 cells [2]; HepG2, at IC50, 72 hours
  Viability Index: 52 ± 1.73%
HepG2 cells [2]; Homo sapiens, HepG2, 4.6 µM, 72 hours, read-out: inhibition of cell growth (trypan blue)
  inhibition at 4.6 µM: 52%
HepG2 cells [2]; Homo sapiens, HepG2, 8.3 µM, 48 hours, read-out: inhibition of cell growth (trypan blue)
  inhibition at 8.3 µM: 64%
HepG2 cells [2]; Homo sapiens, HepG2, 9.2 µM, 24 hours, read-out: inhibition of cell growth (trypan blue)
  inhibition at 9.2 µM: 79%
HepG2 cells [3]; HepG2, 4.6 µM, 72 hours
  death percentage compared to Triton X-100-treated cells: 50%
HepG2 cells [3]; HepG2, 9.4 µM, 72 hours, relative to Triton X-100 maximum
  LDH leakage: 62%
HepG2 cells [3]; HepG2, 37.5 µM, 24 hours
  LDH leakage: 60%
HepG2 cells [3]; HepG2, 37.5 µM, 48 hours
  LDH leakage: 70%
HepG2 cells [3]; HepG2, 37.5 µM, 72 hours
  LDH leakage: 70%
HepG2 cells [3]; HepG2, 150 µM, 24 hours
  LDH leakage: 80%
HepG2 cells [3]; HepG2, 150 µM, 48 hours
  LDH leakage: 86%
HepG2 cells [3]; HepG2, 150 µM, 72 hours
  LDH leakage: 93%
HepG2 cells [3]; HepG2, 24 hours
  IC50: 13.4 µM
HepG2 cells [3]; HepG2, 48 hours
  IC50: 8.29 µM
HepG2 cells [3]; HepG2, 72 hours
  IC50: 5.2 µM
HepG2 cells [4]; HepG2, 72 hours
  IC50: 4.6 µM and 4.63 µM
HepG2 cells [4]; Homo sapiens, HepG2, 24 h
  IC50: 9.2 µM
HepG2 cells [4]; Homo sapiens, HepG2, 48 h
  IC50: 8.3 µM
HepG2 cells [4]; IC50 for normal cell line (Chang)/IC50 for cancerous cell line (HepG2), MTT, 72 hours
  selectivity index (SI): 7.6
HepG2 cells [4]; MTT, 72 hours, value fits HepG2 IC50s
  IC50-GTN / IC50-Doxo: 4.4
Chang cells [5]; IC50, 24 hours
  percentage of cells incorporating BrdU in comparison with untreated cells: 62.4%
Chang cells [5]; IC50, 72 hours
  percentage of cells incorporating BrdU in comparison with untreated cells: 23.5%
Chang cells [5]; lowest concentration (2.3 µM), 72 hours
  decrease in cell proliferation compared to untreated cells (BrdU): 2%
Chang cells [5]; lowest concentration (2.3 µL as printed), 72 hours
  cell proliferation retained (BrdU): 97.6%
